In patent US9617538B2, “Heptamer-type small guide nucleic acids inducing apoptosis of human leukemia cells” (NIIGATA UNIVERSITY OF PHARMACY AND APPLIED LIFE SCIENCE, priority 2011, dated 2017):
{P} = phosphate

Legend:
[1] = test system: human leukemia cell line HL60; experiment: MTT assay, HL60; type: cell-based; settings: sgRNA 1 μM, no delivery reagent, 72 hours (3 days), vs sgRNA non-administered group
Protocol: (§1) Each sgRNA (final concentration 1 μM) was added to a 96-well culture plate containing human cancer cell lines (1,000 cells/100 μl medium), without using a reagent for the delivery of the sgRNA into the cells. The cells were then cultured in a 37° C. CO2 incubator. […] Leukemia cells HL60, and myeloma cells KMM1 and RPMI-8226 were used as the human cancer cell lines, and the viable cell count was compared with that of an sgRNA non-administered group. As controls, each sgRNA was introduced to normal cells HEK293, and the same MTT assay was performed. • (1-3) Flow Cytometry Experiment

[2] = test system: human myeloma cell line KMM1; experiment: MTT assay, KMM1; type: cell-based; settings: sgRNA 1 μM, no delivery reagent, 72 hours (3 days), vs sgRNA non-administered group
Protocol: as §1

[3] = test system: human myeloma cell line RPMI-8226; experiment: MTT assay, RPMI-8226; type: cell-based; settings: sgRNA 1 μM, no delivery reagent, 72 hours (3 days), vs sgRNA non-administered group
Protocol: as §1

[4] = test system: human leukemia cells HL60; experiment: Mouse xenograft experiment; type: in vivo, immunodeficient nude mice; settings: HL60 subcutaneous xenograft; sgRNA 100 μM, 10 μl at transplantation site once daily for 5 days; difference of median survival time vs non-administered or ineffective-sgRNA group
Protocol: 2×10^6 human leukemia cells HL60 were subcutaneously transplanted into immunodeficient nude mice with an extracellular matrix. Each heptamer-type sgRNA (100 μM) was continuously administered to the transplantation site in a dose of 10 μl, once each day for 5 days, and the tumor volume was measured every day. The mice were euthanized upon the tumor volume reaching 1,500 mm^3. The experiment was conducted with groups of 6 to 8 mice, and the difference between the median value of the survival time of each sgRNA administered group and the median value of the survival time of the non-administered group (or a group administered with the ineffective heptamer-type sgRNA) was calculated as the extended lifetime due to the heptamer-type sgRNA. • (2) Results • (2-1) MTT Assay

Row | Substance | MTT assay (Percentage reduction of viable cells) HL60 [1] | MTT assay (Percentage reduction of viable cells) KMM1 [2] | MTT assay (Percentage reduction of viable cells) RPMI [3] | Mouse xenograft experiment (Extended lifetime) [4]
1 | Hep1(HAGE): heptamer-type sgRNA 5′-UCUUUCC-3′, phosphorylated at the 5′ and 3′ ends, 2′-O-methylated (all 2'-O-methyl, 5' {P}, 3' {P}, backbone not given here) | 91% | 61% | 5% | 
2 | Hep1(MYC): heptamer-type sgRNA 5′-CAGCUCG-3′, phosphorylated at the 5′ and 3′ ends, 2′-O-methylated (all 2'-O-methyl, 5' {P}, 3' {P}, backbone not given here) | 90% | 56% | 16% | 
3 | Hep1(bcl-2): heptamer-type sgRNA 5′-GGGCCAG-3′, phosphorylated at the 5′ and 3′ ends, 2′-O-methylated (all 2'-O-methyl, 5' {P}, 3' {P}, backbone not given here) | 88% | 0% | 18% | (+22 days)
4 | Hep2(HAGE): heptamer-type sgRNA 5′-UAUAUUU-3′, phosphorylated at the 5′ and 3′ ends, 2′-O-methylated (all 2'-O-methyl, 5' {P}, 3' {P}, backbone not given here) | 94% | 72% | 5% | 
5 | Hep2(PKCb): heptamer-type sgRNA 5′-CCGGGGC-3′, phosphorylated at the 5′ and 3′ ends, 2′-O-methylated (all 2'-O-methyl, 5' {P}, 3' {P}, backbone not given here) | 93% | 48% | 75% | 
6 | Hep2(bcl-2): heptamer-type sgRNA 5′-GGGGGCG-3′, phosphorylated at the 5′ and 3′ ends, 2′-O-methylated (all 2'-O-methyl, 5' {P}, 3' {P}, backbone not given here) | 99% | 24% | 69% | (+19 days)
7 | Hep3(MYC): heptamer-type sgRNA 5′-GCAGCUC-3′, phosphorylated at the 5′ and 3′ ends, 2′-O-methylated (5' {P}, 3' {P}, sugars by position and backbone not given here; 2'-O-methylated) | 90% | 67% | 2% | 
8 | Hep5(IRF4): heptamer-type sgRNA 5′-GGGUCCU-3′, phosphorylated at the 5′ and 3′ ends, 2′-O-methylated (5' {P}, 3' {P}, sugars by position and backbone not given here; 2'-O-methylated) | 86% | 69% | 6% | 
9 | Hep5(MYC): heptamer-type sgRNA 5′-GCUGCUG-3′, phosphorylated at the 5′ and 3′ ends, 2′-O-methylated (5' {P}, 3' {P}, sugars by position and backbone not given here; 2'-O-methylated) | 86% | 72% | 0% | 
10 | Hep5(PRAME): heptamer-type sgRNA 5′-GCUCUGC-3′, phosphorylated at the 5′ and 3′ ends, 2′-O-methylated (5' {P}, 3' {P}, sugars by position and backbone not given here; 2'-O-methylated) | 94% | 17% | 54% | 
11 | Hep6(PRAME): heptamer-type sgRNA 5′-UCCAGGU-3′, phosphorylated at the 5′ and 3′ ends, 2′-O-methylated (all 2'-O-methyl, 5' {P}, 3' {P}, backbone not given here) | 95% | 15% | 10% | 
12 | Hep7(WT1): heptamer-type sgRNA 5′-CUGCUUU-3′, phosphorylated at the 5′ and 3′ ends, 2′-O-methylated (5' {P}, 3' {P}, sugars by position and backbone not given here; 2'-O-methylated) | 98% | 24% | 46% | 
13 | Hep8(FGFR3): heptamer-type sgRNA 5′-AUCUUCA-3′, phosphorylated at the 5′ and 3′ ends, 2′-O-methylated (all 2'-O-methyl, 5' {P}, 3' {P}, backbone not given here) | 87% | 78% | 76% | (+10 days)
14 | Hep9(FGFR3): heptamer-type sgRNA 5′-CACCAGC-3′, phosphorylated at the 5′ and 3′ ends, 2′-O-methylated (all 2'-O-methyl, 5' {P}, 3' {P}, backbone not given here) | 95% | 79% | 76% | (+6 days)
15 | Hep(YW): heptamer-type sgRNA 5′-GCAUGCG-3′, phosphorylated at the 5′ and 3′ ends, 2′-O-methylated (all 2'-O-methyl, 5' {P}, 3' {P}, backbone not given here) | 96% | 59% | 0% | 
